US20100069323A1, “COMPOSITION FOR APPLICATION TO SKIN OR MUCOSA” (priority 2006, published 2010)

Tested on: rabbit corneal epithelial cell line SIRC
Test: Evaluation of cytotoxicity of prepared alginic acid (Cell Counting Kit-8 viable cell detection)
Type: cell-based
Procedure: The test for toxicity of the alginic acid prepared above (Example 1 and Comparative Examples 1 and 2) to cells was carried out. First, an alginic acid solution was prepared by dissolving each alginic acid to a concentration of 0.2 or 2.0% (w/v) in a cell culture medium of medium 199 (GIBCO) supplemented with 10% (v/v) fetal bovine serum (Daiichi Kagaku Yakuhin). Then, rabbit corneal epithelial cell line SIRC (ATCC number: CCL-60) was plated at 2.0×10^5 cells/well in 48-well microtiter plate (Corning), and alginic acid solution prepared above was added to obtain a final concentration of 0.1 or 1.0% (w/v) of alginic acid, and the cells were subsequently cultured under the condition of 37° C., 5% CO2 and 90% relative humidity. […] After 1 hour, the absorbance (450 nm) of the dye developed by reacting with the viable cells was measured using a spectrophotometer (Thermo Electron). With the observed value of the absorbance, cell viability was calculated in the following equation, and the cytotoxicity of each alginic acid was evaluated.
Cell viability(%)=100×(absorbance of the group in which each alginic acid solution was added−absorbance of the medium containing a reagent for viable cell detection)/(absorbance of the control group−absorbance of the medium containing a reagent for viable cell detection) Equation 5

alginic acid [Comparative Example 2]
Cell viability: about 5%
microscopic observation of cells: lost their adhesive capacity and floated
